From patent publication US10450292B2, “Inhibitors of bacterial RNA polymerase: arylpropanoyl, arylpropenoyl, and arylcyclopropanecarboxyl phloroglucinols” (Rutgers, The State University of New Jersey, priority 2015, dated 2019)
Values after ≈ are worked out from the molar mass of the structure shown.

Key:
[1] = test system: Enterococcus faecalis ATCC 19433; assay: Inhibition of bacterial growth in culture, spiral gradient endpoint assay (MIC); format: cell-based; details: for MIC: Enterococcus faecalis, ATCC 19433 /, 16 h, read-out: MIC E. faecalis, Mueller-Hinton II agar, 16 h at 37° C.; for MIC E. faecalis H37Rv: Mueller-Hinton II agar, 16 h at 37° C.
Description: J. Microbiol. Meths. […] Int. J. Exp. Clin. Chemother. […] Adv.

[2] = test system: Escherichia coli D21f2tolC; assay: microbe, parasite or virus in culture; details: 16 h, read-out: MIC E. coli D21f2tolC, Mueller-Hinton II agar, 16 h at 37° C.
[3] = test system: Staphylococcus aureus ATCC 12600; assay: Inhibition of bacterial growth in culture, spiral gradient endpoint assay (MIC); details: for MIC: Staphylococcus aureus, ATCC12600, 16 h, read-out: MIC S. aureus 12600, Mueller-Hinton II agar, 16 h at 37° C.
[4] = test system: Escherichia coli D21f2tolC; details: Mueller-Hinton II agar, 16 h at 37° C.

Row | Structure (SMILES) | MIC [1] | MIC [2] | MIC [3] | MIC E. faecalis H37Rv [1] | MIC E. coli D21f2tolC [4] | MIC S. aureus 12600 ([3]; Mueller-Hinton II agar, 16 h at 37° C.)
1 | CCCC1=C(O)C(CCC)(CCC)C(=O)C(C(=O)C2CC2c2ccc(Oc3ccc(F)cc3)cc2)=C1O (stereo not drawn) [Example 66, 2-(2-(4-(4-fluorophenoxy)phenyl)cyclopropanecarbonyl)-3,5-dihydroxy-4,6,6-tripropylcyclohexa-2,4-dienone] | 0.55 µg/mL (≈ 1.09 µM) | 0.72 µg/mL (≈ 1.42 µM) | 0.16 µg/mL (≈ 0.316 µM) | – | – | –
2 | CCCC1=C(O)C(CCC)(CCC)C(=O)C(C(=O)CCc2ccc(Oc3ccc(F)cc3)cc2C(F)(F)F)=C1O [Example 68, 2-(3-(4-(4-fluorophenoxy)-2-(trifluoromethyl)phenyl)propanoyl)-3,5-dihydroxy-4,6,6-tripropylcyclohexa-2,4-dienone] | 1.3 µg/mL (≈ 2.31 µM) | 1.5 µg/mL (≈ 2.67 µM) | 0.6 µg/mL (≈ 1.07 µM) | – | – | –
3 | CCCC1=C(O)C(CCC)(CCC)C(=O)C(C(=O)CCc2ccc(Oc3ccc(F)cc3)cc2C)=C1O [Example 69, 2-(3-(4-(4-fluorophenoxy)-2-methylphenyl)propanoyl)-3,5-dihydroxy-4,6,6-tripropylcyclohexa-2,4-dienone] | 1.4 µg/mL (≈ 2.75 µM) | 1.1 µg/mL (≈ 2.16 µM) | 1.1 µg/mL (≈ 2.16 µM) | – | – | –
4 | CCCC1=C(O)C(CCC)(CCC)C(=O)C(C(=O)C2CC2c2ccc(Oc3ccc(F)cc3)cc2C(F)(F)F)=C1O (stereo not drawn) [Example 70, 2-(2-(4-(4-fluorophenoxy)-2-(trifluoromethyl)phenyl)cyclopropanecarbonyl)-3,5-dihydroxy-4,6,6-tripropylcyclohexa-2,4-dienone] | 1.2 µg/mL (≈ 2.09 µM) | 8.2 µg/mL (≈ 14.3 µM) | 1.5 µg/mL (≈ 2.61 µM) | – | – | –
5 | CCCC1=C(O)C(CCC)(CCC)C(=O)C(C(=O)C2CC2c2ccc(Oc3ccc(F)cc3)cc2C)=C1O (stereo not drawn) [Example 71, 2-(2-(4-(4-fluorophenoxy)-2-methylphenyl)cyclopropanecarbonyl)-3,5-dihydroxy-4,6,6-tripropylcyclohexa-2,4-dienone] | 2.1 µg/mL (≈ 4.03 µM) | 2.3 µg/mL (≈ 4.42 µM) | 0.9 µg/mL (≈ 1.73 µM) | – | – | –
6 | CCC1=C(O)C(CC)(CC)C(=O)C(C(=O)C2CC2c2ccc(Oc3ccc(F)cc3)cc2C(F)(F)F)=C1O (stereo not drawn) [Example 72, 4,6,6-triethyl-2-(2-(4-(4-fluorophenoxy)-2-(trifluoromethyl)phenyl)cyclopropanecarbonyl)-3,5-dihydroxycyclohexa-2,4-dienone] | > 40 µg/mL | 1.6 µg/mL (≈ 3 µM) | 6.5 µg/mL (≈ 12.2 µM) | – | – | –
7 | CCC1=C(O)C(CC)(CC)C(=O)C(C(=O)CCc2ccc(Oc3ccc(F)cc3)cc2C(F)(F)F)=C1O [Example 73, 4,6,6-triethyl-2-(3-(4-(4-fluorophenoxy)-2-(trifluoromethyl)phenyl)propanoyl)-3,5-dihydroxycyclohexa-2,4-dienone] | 1.6 µg/mL (≈ 3.07 µM) | 1.2 µg/mL (≈ 2.31 µM) | 1.5 µg/mL (≈ 2.88 µM) | – | – | –
8 | CCC1=C(O)C(CC)(CC)C(=O)C(C(=O)CCc2ccc(Oc3ccc(F)cc3)cc2C)=C1O [Example 74, 4,6,6-triethyl-2-(3-(4-(4-fluorophenoxy)-2-methylphenyl)propanoyl)-3,5-dihydroxycyclohexa-2,4-dienone] | 11 µg/mL (≈ 23.6 µM) | 0.9 µg/mL (≈ 1.93 µM) | 1.7 µg/mL (≈ 3.64 µM) | – | – | –
9 | CC1=C(O)C(C)(C)C(=O)C(C(=O)C2CC2c2ccc(Oc3ccc(F)cc3)cc2C)=C1O (stereo not drawn) [Example 75, 2-(2-(4-(4-fluorophenoxy)-2-methylphenyl)cyclopropanecarbonyl)-3,5-dihydroxy-4,6,6-trimethylcyclohexa-2,4-dienone] | > 40 µg/mL | 5.1 µg/mL (≈ 11.7 µM) | 17 µg/mL (≈ 38.9 µM) | – | – | –
10 | CC1=C(O)C(C)(C)C(=O)C(C(=O)C2CC2c2ccc(Cl)cc2C(F)(F)F)=C1O (stereo not drawn) [Example 76, 2-(2-(4-chloro-2-(trifluoromethyl)phenyl)cyclopropanecarbonyl)-3,5-dihydroxy-4,6,6-trimethylcyclohexa-2,4-dienone] | > 40 µg/mL | 3.1 µg/mL (≈ 7.47 µM) | 12 µg/mL (≈ 28.9 µM) | – | – | –
11 | CC1=C(O)C(C)(C)C(=O)C(C(=O)C2CC2c2ccc(Cl)cc2C)=C1O (stereo not drawn) [Example 77, 2-(2-(4-chloro-2-methylphenyl)cyclopropanecarbonyl)-3,5-dihydroxy-4,6,6-trimethylcyclohexa-2,4-dienone] | > 40 µg/mL | 7.4 µg/mL (≈ 20.5 µM) | > 40 µg/mL | – | – | –
12 | CC1=C(O)C(C)(C)C(=O)C(C(=O)CCc2ccc(Oc3ccc(F)cc3)cc2)=C1O [Example 78, 2-(3-(4-(4-fluorophenoxy)phenyl)propanoyl)-3,5-dihydroxy-4,6,6-trimethylcyclohexa-2,4-dienone] | > 40 µg/mL | 6.5 µg/mL (≈ 15.8 µM) | > 40 µg/mL | – | – | –
13 | CCCC1=C(O)C(CCC)(CCC)C(=O)C(C(=O)C2CC2c2ccc(Cl)cc2)=C1O (stereo not drawn) [Example 79, 2-(2-(4-chlorophenyl)cyclopropanecarbonyl)-3,5-dihydroxy-4,6,6-tripropylcyclohexa-2,4-dienone] | 0.61 µg/mL (≈ 1.42 µM) | 0.15 µg/mL (≈ 0.348 µM) | 0.27 µg/mL (≈ 0.626 µM) | – | – | –
14 | CCCC1=C(O)C(CCC)(CCC)C(=O)C(C(=O)C2CC2c2ccc(Cl)cc2C(F)(F)F)=C1O (stereo not drawn) [Example 80, 2-(2-(4-chloro-2-(trifluoromethyl)phenyl)cyclopropanecarbonyl)-3,5-dihydroxy-4,6,6-tripropylcyclohexa-2,4-dienone] | 0.42 µg/mL (≈ 0.842 µM) | 0.33 µg/mL (≈ 0.661 µM) | 0.14 µg/mL (≈ 0.281 µM) | – | – | –
15 | CCC1=C(O)C(CC)(CC)C(=O)C(C(=O)C2CC2c2ccc(Cl)cc2)=C1O (stereo not drawn) [Example 81, 2-(2-(4-chlorophenyl)cyclopropanecarbonyl)-4,6,6-triethyl-3,5-dihydroxycyclohexa-2,4-dienone] | – | 2.2 µg/mL (≈ 5.66 µM) | 4.5 µg/mL (≈ 11.6 µM) | 11 µg/mL (≈ 28.3 µM) | – | –
16 | CCC1=C(O)C(CC)(CC)C(=O)C(C(=O)C2CC2c2ccc(Cl)cc2C)=C1O (stereo not drawn) [Example 82, 2-(2-(4-chloro-2-methylphenyl)cyclopropanecarbonyl)-4,6,6-triethyl-3,5-dihydroxycyclohexa-2,4-dienone] | 12 µg/mL (≈ 29.8 µM) | 1.2 µg/mL (≈ 2.98 µM) | 3.6 µg/mL (≈ 8.93 µM) | – | – | –
17 | CC1=C(O)C(C)(C)C(=O)C(C(=O)C2CC2c2ccc(C(F)(F)F)cc2C(F)(F)F)=C1O (stereo not drawn) [Example 83, 2-(2-(2,4-bis(trifluoromethyl)phenyl)cyclopropanecarbonyl)-3,5-dihydroxy-4,6,6-trimethylcyclohexa-2,4-dienone] | > 40 µg/mL | 2.4 µg/mL (≈ 5.35 µM) | 5 µg/mL (≈ 11.2 µM) | – | – | –
18 | CCC1=C(O)C(CC)(CC)C(=O)C(C(=O)C2CC2c2ccc(Cl)cc2C(F)(F)F)=C1O (stereo not drawn) [Example 84, 2-(2-(4-chloro-2-(trifluoromethyl)phenyl)cyclopropanecarbonyl)-4,6,6-triethyl-3,5-dihydroxycyclohexa-2,4-dienone] | 2.1 µg/mL (≈ 4.6 µM) | 0.44 µg/mL (≈ 0.963 µM) | 1.3 µg/mL (≈ 2.85 µM) | – | – | –
19 | CC1=C(O)C(C)(C)C(=O)C(C(=O)C2CC2c2ccc(Oc3ccc(F)cc3)cc2C(F)(F)F)=C1O (stereo not drawn) [Example 85, 2-(2-(4-(4-fluorophenoxy)-2-(trifluoromethyl)phenyl)cyclopropanecarbonyl)-3,5-dihydroxy-4,6,6-trimethylcyclohexa-2,4-dienone] | > 40 µg/mL | 4 µg/mL (≈ 8.16 µM) | 12 µg/mL (≈ 24.5 µM) | – | – | –
20 | CCCC1=C(O)C(CCC)(CCC)C(=O)C(C(=O)C2CC2c2ccc(C(F)(F)F)cc2C(F)(F)F)=C1O (stereo not drawn) [Example 86, 2-(2-(2,4-bis(trifluoromethyl)phenyl)cyclopropanecarbonyl)-3,5-dihydroxy-4,6,6-tripropylcyclohexa-2,4-dienone] | 1.7 µg/mL (≈ 3.19 µM) | 2.2 µg/mL (≈ 4.13 µM) | 0.65 µg/mL (≈ 1.22 µM) | – | – | –
21 | CCC1=C(O)C(CC)(CC)C(=O)C(C(=O)C2CC2c2ccc(C(F)(F)F)cc2C(F)(F)F)=C1O (stereo not drawn) [Example 87, 2-(2-(2,4-bis(trifluoromethyl)phenyl)cyclopropanecarbonyl)-4,6,6-triethyl-3,5-dihydroxycyclohexa-2,4-dienone] | > 40 µg/mL | 3.2 µg/mL (≈ 6.52 µM) | 5.9 µg/mL (≈ 12 µM) | – | – | –
22 | CC1=C(O)C(C)(C)C(=O)C(C(=O)C2CC2c2ccc(C(F)(F)F)cc2)=C1O (stereo not drawn) [Example 88, 3,5-dihydroxy-4,6,6-trimethyl-2-(2-(4-(trifluoromethyl)phenyl)cyclopropanecarbonyl)cyclohexa-2,4-dienone] | > 40 µg/mL | > 40 µg/mL | > 40 µg/mL | – | – | –
23 | CCC1=C(O)C(CC)(CC)C(=O)C(C(=O)C2CC2c2ccc(Cl)cc2)=C1O (stereo not drawn) [Example 89, 2-(2-(4-chlorophenyl)cyclopropanecarbonyl)-4,6,6-triethyl-3,5-dihydroxycyclohexa-2,4-dienone] | – | – | – | >40 µg/mL | 3.0 µg/mL (≈ 7.71 µM) | 7.9 µg/mL (≈ 20.3 µM)
24 | CCC1=C(O)C(CC)(CC)C(=O)C(C(=O)C2CC2c2ccc(C(F)(F)F)cc2)=C1O (stereo not drawn) [Example 90, 4,6,6-triethyl-3,5-dihydroxy-2-(2-(4-(trifluoromethyl)phenyl)cyclopropanecarbonyl)cyclohexa-2,4-dienone] | 2.3 µg/mL (≈ 5.44 µM) | 1.1 µg/mL (≈ 2.6 µM) | 1.4 µg/mL (≈ 3.31 µM) | – | – | –
25 | CCCC1=C(O)C(CCC)(CCC)C(=O)C(C(=O)C2CC2c2ccc(C(F)(F)F)cc2)=C1O (stereo not drawn) [Example 91, 3,5-dihydroxy-4,6,6-tripropyl-2-(2-(4-(trifluoromethyl)phenyl)cyclopropanecarbonyl)cyclohexa-2,4-dienone] | 0.41 µg/mL (≈ 0.883 µM) | 0.66 µg/mL (≈ 1.42 µM) | 0.36 µg/mL (≈ 0.775 µM) | – | – | –
26 | CC1=C(O)C(C)(C)C(=O)C(C(=O)C2CC2c2ccc(Oc3ccc(F)cc3)cc2)=C1O (stereo not drawn) [Example 92, 2-(2-(4-(4-fluorophenoxy)phenyl)cyclopropanecarbonyl)-3,5-dihydroxy-4,6,6-trimethylcyclohexa-2,4-dienone] | > 40 µg/mL | 5.5 µg/mL (≈ 13 µM) | 21 µg/mL (≈ 49.7 µM) | – | – | –
